Test results: ChEMBL document CHEMBL1201862, “PubChem BioAssay data set” (2004)
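Each compound was tested at five concentrations against cells in 96-well plates for 48 hours. Abbreviation: GI50, concentration required for 50% inhibition of growth.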 Activity calls are given as the source filed them. Cut-off read from the data, not from the text of the source: active = GI50 up to about 1.1 µM and inactive = higher.

Experiments:
Test in all cases: NCI anticancer screen, dose series, 48 h
RPMI-8226 = system: RPMI-8226
KM12 = system: KM12
OVCAR-5 = system: OVCAR-5
M14 = system: M14
NCI-H226 = system: NCI-H226
SN12C = system: SN12C
OVCAR-4 = system: OVCAR-4
IGROV-1 = system: IGROV-1
ACHN = system: ACHN
SK-MEL-28 = system: SK-MEL-28
UO-31 = system: UO-31
SNB-75 = system: SNB-75
786-0 = system: 786-0
A549 = system: A549
MDA-MB-435 = system: MDA-MB-435
SF-539 = system: SF-539
A498 = system: A498
COLO 205 = system: COLO 205
HOP-92 = system: HOP-92
DU-145 = system: DU-145

Measured: GI50

CN1CC(c2ccccc2)=CC2=C1C=CC(=N)/C2=N\N
inactive: RPMI-8226 > 100 µM | KM12 > 100 µM | OVCAR-5 > 100 µM | M14 > 100 µM | NCI-H226 6.65 µM | SN12C > 100 µM | OVCAR-4 > 100 µM | IGROV-1 > 100 µM | ACHN > 100 µM | SK-MEL-28 > 100 µM | UO-31 > 100 µM | SNB-75 20.9 µM | 786-0 > 100 µM | A549 > 100 µM | MDA-MB-435 > 100 µM | SF-539 > 100 µM

Cc1ccc(S(=O)(=O)NC(C)C(=O)O)cc1 (stereo not drawn)
inactive: A498 > 100 µM | RPMI-8226 > 100 µM | KM12 > 100 µM | OVCAR-5 > 100 µM | M14 > 100 µM | NCI-H226 > 100 µM | SN12C > 100 µM | OVCAR-4 > 100 µM | IGROV-1 > 100 µM | COLO 205 > 100 µM | ACHN > 100 µM | SK-MEL-28 > 100 µM | UO-31 > 100 µM | SNB-75 > 100 µM | 786-0 > 100 µM | A549 > 100 µM | HOP-92 > 100 µM | SF-539 > 100 µM

CCc1cccc(CC)c1NC(=O)C1=CNC(C)=C(C(=O)Nc2c(CC)cccc2CC)C1c1ccc(O)c(OC)c1 (stereo not drawn)
inactive: A498 24.7 µM | RPMI-8226 16.8 µM | KM12 24.6 µM | OVCAR-5 54.8 µM | M14 34.5 µM | NCI-H226 30.1 µM | SN12C 57.8 µM | OVCAR-4 23.9 µM | IGROV-1 36.8 µM | COLO 205 56.2 µM | ACHN 32.5 µM | SK-MEL-28 33.3 µM | UO-31 29.1 µM | SNB-75 44.7 µM | 786-0 34.4 µM | A549 31.6 µM | HOP-92 42.4 µM | SF-539 17.6 µM

O=C1C=CC(S(=O)(=O)C2=C/C(=C/Nc3ccc(Cl)cc3)C(=O)C=C2)=C/C1=C/Nc1ccc(Cl)cc1
inactive: A498 > 100 µM | RPMI-8226 > 100 µM | KM12 > 100 µM | OVCAR-5 > 100 µM | M14 > 100 µM | NCI-H226 > 100 µM | SN12C > 100 µM | OVCAR-4 > 100 µM | IGROV-1 > 100 µM | COLO 205 > 100 µM | ACHN > 100 µM | SK-MEL-28 > 100 µM | UO-31 > 100 µM | SNB-75 47.6 µM | 786-0 > 100 µM | A549 > 100 µM | HOP-92 > 100 µM | SF-539 > 100 µM

Cc1ccc(S(=O)(=O)N2c3ccccc3[C@H]3CCC=C[C@H]32)cc1
inactive: A498 6.4 µM | RPMI-8226 6.55 µM | KM12 3.83 µM | OVCAR-5 41.3 µM | M14 5.5 µM | NCI-H226 10.5 µM | SN12C 14.5 µM | OVCAR-4 17.3 µM | DU-145 20.3 µM | IGROV-1 10.6 µM | COLO 205 3.94 µM | ACHN 19.3 µM | SK-MEL-28 10.9 µM | UO-31 5 µM | SNB-75 5.05 µM | 786-0 13.2 µM | A549 6.75 µM | HOP-92 3.16 µM | SF-539 9.42 µM

Nc1ccc(-c2cc(C(=O)Nc3nccs3)nc(S)n2)cc1
inactive: A498 > 100 µM | RPMI-8226 > 100 µM | KM12 > 100 µM | OVCAR-5 > 100 µM | M14 > 100 µM | NCI-H226 > 100 µM | SN12C > 100 µM | OVCAR-4 > 100 µM | IGROV-1 > 100 µM | COLO 205 > 100 µM | ACHN > 100 µM | SK-MEL-28 > 100 µM | UO-31 > 100 µM | SNB-75 > 100 µM | 786-0 > 100 µM | A549 > 100 µM | HOP-92 > 100 µM | SF-539 > 100 µM

CCOc1ccccc1NC(=O)CCc1nnc2s/c(=C\CCc3ccccc3)c(=O)n12
inactive: A498 > 100 µM | RPMI-8226 > 100 µM | KM12 > 100 µM | OVCAR-5 > 100 µM | M14 > 100 µM | NCI-H226 > 100 µM | SN12C > 100 µM | OVCAR-4 > 100 µM | IGROV-1 > 100 µM | COLO 205 > 100 µM | ACHN > 100 µM | SK-MEL-28 > 100 µM | UO-31 > 100 µM | SNB-75 > 100 µM | 786-0 > 100 µM | A549 > 100 µM | HOP-92 > 100 µM | SF-539 > 100 µM

COCN1COCN/C1=N\C#N
inactive: A498 > 100 µM | RPMI-8226 > 100 µM | KM12 > 100 µM | OVCAR-5 > 100 µM | M14 > 100 µM | NCI-H226 > 100 µM | SN12C > 100 µM | OVCAR-4 75.5 µM | IGROV-1 > 100 µM | COLO 205 41 µM | ACHN > 100 µM | SK-MEL-28 > 100 µM | UO-31 > 100 µM | SNB-75 > 100 µM | 786-0 > 100 µM | A549 > 100 µM | HOP-92 > 100 µM | SF-539 > 100 µM
